Data on 21 molecules can be found in US9353104B2, “Substituted pyridizinone derivatives as PDE10 inhibitors” (priority 2013, dated 2016).

Sequence of human PDE10A2 (Q9Y233 267-1055): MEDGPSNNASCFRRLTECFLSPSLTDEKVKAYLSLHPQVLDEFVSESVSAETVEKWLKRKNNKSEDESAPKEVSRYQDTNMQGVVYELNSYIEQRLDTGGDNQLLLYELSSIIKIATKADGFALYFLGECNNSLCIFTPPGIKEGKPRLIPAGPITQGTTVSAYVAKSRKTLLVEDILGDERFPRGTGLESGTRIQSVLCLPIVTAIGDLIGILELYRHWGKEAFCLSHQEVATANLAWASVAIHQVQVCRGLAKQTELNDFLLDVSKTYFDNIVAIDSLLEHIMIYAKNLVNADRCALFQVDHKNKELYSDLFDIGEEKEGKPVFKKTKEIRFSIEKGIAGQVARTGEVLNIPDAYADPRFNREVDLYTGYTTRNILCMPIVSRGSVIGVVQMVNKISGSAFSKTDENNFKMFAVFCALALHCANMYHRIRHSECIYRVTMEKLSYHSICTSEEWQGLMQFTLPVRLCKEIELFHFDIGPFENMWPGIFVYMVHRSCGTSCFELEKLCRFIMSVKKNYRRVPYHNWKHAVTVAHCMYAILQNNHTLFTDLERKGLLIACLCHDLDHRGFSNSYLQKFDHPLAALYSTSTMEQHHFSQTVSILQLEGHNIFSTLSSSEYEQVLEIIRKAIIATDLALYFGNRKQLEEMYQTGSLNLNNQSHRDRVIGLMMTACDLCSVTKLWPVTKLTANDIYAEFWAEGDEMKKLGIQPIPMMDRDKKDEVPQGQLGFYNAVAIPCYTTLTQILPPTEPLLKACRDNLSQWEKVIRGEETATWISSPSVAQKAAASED

This test addresses human PDE10A2 (Homo sapiens (Human), UniProt Q9Y233). The test is described as follows: PDE10 fluorescence polarization (IMAP FP) inhibition assay. Format: biochemical. The note with it: human PDE10A2 lysate, FAM-labeled cAMP 50 nM, room temperature; read-out: PDE10A Ki. The procedure:
The activity of the compounds in accordance with the present invention as PDE10 inhibitors may be readily determined without undue experimentation using a fluorescence polarization (FP) methodology that is well known in the art (Huang, W., et al., J. Biomol Screen, 2002, 7: 215). […] In a typical experiment the PDE10 inhibitory activity of the compounds of the present invention was determined in accordance with the following experimental method. PDE10A2 was amplified from human fetal brain cDNA (Clontech, Mountain View, Calif.) using a forward primer corresponding to nucleotides 56-77 of human PDE10A2 (Accession No. AF127480, Genbank Identifier 4894716), containing a Kozak consensus sequence, and a reverse primer corresponding to nucleotides 2406-2413 of human PDE10A2 (Accession No. AF127480, Genbank Identifier 4894716). Amplification with Easy-A polymerase (Stratagene, La Jolla, Calif.) was 95° C. for 2 minutes followed by thirty three cycles of 95° C. for 40 seconds, 55° C. for 30 seconds, and 72° C. for 2 minutes 48 seconds. Final extension was 72° C. for 7 minutes. The PCR product was TA cloned into pcDNA3.2-TOPO (Invitrogen, Carlsbad, Calif.) according to standard protocol. AD293 cells with 70-80% confluency were transiently transfected with human PDE10A2/pcDNA3.2-TOPO using Lipofectamine 2000 according to manufacturer specifications (Invitrogen, Carlsbad, Calif.). Cells were harvested 48 hours post-transfection and lysed by sonication (setting 3, 10×5 sec pulses) in a buffer containing 20 mM HEPES, 1 mM EDTA and protease inhibitor cocktail (Roche). Lysate was collected by centrifugation at 75,000×g for 20 minutes. Supernatant containing the cytoplasmic fraction was used for evaluation of PDE10A2 activity. The fluorescence polarization assay for cyclic nucleotide phosphodiesterases was performed using an IMAP® FP kit supplied by Molecular Devices, Sunnyvale, Calif. (product #R8139). IMAP® technology has been applied previously to phosphodiesterase assays (Huang, W., et al., J. Biomol Screen, 2002, 7: 215). Assays were performed at room temperature in 384-well microtiter plates with an incubation volume of 20.2 μL. Solutions of test compounds were prepared in DMSO and serially diluted with DMSO to yield 8 μL of each of 10 solutions differing by 3-fold in concentration, at 32 serial dilutions per plate. 100% inhibition is determined using a known PDE10 inhibitor, which can be any compound that is present at 5,000 times its Ki value in the assay described as follows, such as papaverine (see Siuciak, et al. Neuropharmacology (2006) 51:386-396; Becker, et al. Behav Brain Res (2008) 186(2):155-60; Threlfell, et al., J Pharmacol Exp Ther (2009) 328(3):785-795), 2-{4-[pyridin-4-yl-1-(2,2,2-trifluoroethyl)-1H-pyrazol-3-yl]phenoxymethyl}quinoline succinic acid or 2-[4-(1-methyl-4-pyridin-4-yl-1H-pyrazol-3-yl)-phenoxymethyl]quinoline succinic acid (see Schmidt, et al. J Pharmacol Exp Ther (2008) 325:681-690; Threlfell, et al., J Pharmacol Exp Ther (2009) 328(3): 785-795). 0% of inhibition is determined by using DMSO (1% final concentrations).
A Labcyte Echo 555 (Labcyte, Sunnyvale, Calif.) is used to dispense 200 nL from each well of the titration plate to the 384 well assay plate. A solution of enzyme (1/1600 dilution from aliquots; sufficient to produce 20% substrate conversion) and a separate solution of FAM-labeled cAMP PDE from Molecular Devices (product #R7506), at a final concentration of 50 nM are made in the assay buffer (10 mM Tris HCl, pH 7.2, 10 mM MgCl2, 0.05% NaN3 0.01% Tween-20, and 1 mM DTT). The enzyme and the substrate are then added to the assay plates in two consecutive additions of 10 μL, and then shaken to mix. The reaction is allowed to proceed at room temperature for 30 minutes. A binding solution is then made from the kit components, comprised of 80% Solution A, 20% Solution B and binding reagent at a volume of 1/600 the total binding solution.
Background: Polarisation of emitted light reports the rotation of a fluorescent probe.
Turning to `Cc1ccc(CNc2cc(OC[C@H]3C[C@@H]3c3ccc4c(n3)CCC4)nn(C)c2=O)c(C)n1` [Example 56, 6-(((1S,2S)-2-(6,7-dihydro-5H-cyclopenta-[b]pyridin-2-yl)cyclo-propyl)methoxy)-4-(((2,6-dimethylpyridin-3-yl)-methyl)amino)-2-methyl-pyridazin-3(2H)-one], the Ki came out at 0.002 nM. On to `Cc1ccc(CNc2cc(OC[C@H]3C[C@@H]3c3ccc4ccccc4n3)nn(C)c2=O)c(C)n1` [Example 57, 4-(((2,6-dimethylpyridin-3-yl)methyl)amino)-2-methyl-6-(((1S,2S)-2-(quinolin-2-yl)cyclopropyl)methoxy)-pyridazin-3(2H)-one], for which the inhibitory constant (Ki) was found to be 0.004 nM. As for `Cc1ccc(CNc2cc(OC[C@H]3C[C@@H]3c3ccc(OC(F)F)cn3)nn(C)c2=O)c(C)n1` [Example 58, 6-(((1S,2S)-2-(5-(difluoromethoxy)pyridin-2-yl)cyclopropyl)-methoxy)-4-(((2,6-di-methylpyridin-3-yl)-methyl)amino)-2-methyl-pyridazin-3(2H)-one], the Ki is 0.028 nM.

With `COc1ccc([C@H]2C[C@@H]2COc2cc(NCc3c(C)noc3C)c(=O)n(C)n2)nc1` [Example 59, 4-(((3,5-dimethylisoxazol-4-yl)methyl)amino)-6-(((1S,2S)-2-(5-methoxy-pyridin-2-yl)cyclopropyl-)-methoxy)-2-methyl-pyridazin-3(2H)-one], the inhibitory constant (Ki) was found to be 0.38 nM. As for `Cc1noc(C)c1CNc1cc(OC[C@H]2C[C@@H]2c2ccn(C)n2)nn(C)c1=O` [Example 61, 4-(((3,5-dimethylisoxazol-4-yl)methyl)amino)-2-methyl-6-(((1S,2S)-2-(1-methyl-1H-pyrazol-3-yl)cyclopropyl)methoxy)-pyridazin-3(2H)-one], the figure is 4.1 nM. Turning to `COc1ccc([C@H]2C[C@@H]2COc2cc(NCc3ccnc(C)c3)c(=O)n(C)n2)nc1` [Example 62, 6-(((1S,2S)-2-(5-methoxy-pyridin-2-yl)cyclopropyl-)-methoxy)-2-methyl-4-(((2-methylpyridin-4-yl)methyl)amino)pyridazin-3(2H)-one], the Ki amounted to 0.122 nM. On to `COc1ccc([C@H]2C[C@@H]2COc2cc(NCc3cncnc3)c(=O)n(C)n2)nc1` [Example 63, 6-(((1S,2S)-2-(5-methoxy-pyridin-2-yl)cyclopropyl-)-methoxy)-2-methyl-4-((pyrimidin-5-ylmethyl)-amino)pyridazin-3(2H)one], for which the inhibitory constant (Ki) turned out to be 1.7 nM. In the case of `COc1ccc([C@H]2C[C@@H]2COc2cc(NCc3ccc(C)nc3)c(=O)n(C)n2)nc1` [Example 64, 6-(((1S,2S)-2-(5-methoxy-pyridin-2-yl)cyclopropyl-)-methoxy)-2-methyl-4-(((6-methylpyridin-3-yl)methyl)amino)pyridazin-3(2H)-one] it was 0.025 nM; in that of `COc1ccc([C@H]2C[C@@H]2COc2cc(NCc3cccnc3C)c(=O)n(C)n2)nc1` [Example 65, 6-(((1S,2S)-2-(5-methoxy-pyridin-2-yl)cyclopropyl-)-methoxy)-2-methyl-4-(((2-methylpyridin-3-yl)-methyl)amino)pyridazin-3(2H)-one], 0.053 nM; in that of `COc1ccc([C@H]2C[C@@H]2COc2cc(NCc3cnccn3)c(=O)n(C)n2)nc1` [Example 66, 6-(((1S,2S)-2-(5-methoxypyridin-2-yl)cyclopropyl)methoxy)-2-methyl-4-((pyrazin-2-ylmethyl)amino)pyridazin-3(2H)-one], 5.7 nM. As for `COc1ccc([C@H]2C[C@@H]2COc2cc(NCc3cncc(C)c3)c(=O)n(C)n2)nc1` [Example 67, 6-(((1S,2S)-2-(5-methoxypyridin-2-yl)cyclopropyl)methoxy)-2-methyl-4-(((5-methylpyridin-3-yl)methyl)amino)pyridazin-3(2H)-one], the figure is 0.049 nM. As for `COc1ccc([C@H]2C[C@@H]2COc2cc(NCc3cccnc3)c(=O)n(C)n2)nc1` [Example 68, 6-(((1S,25)-2-(5-methoxy-pyridin-2-yl)cyclopropyl-)-methoxy)-2-methyl-4-((pyridin-3-ylmethyl)-amino)pyridazin-3(2H)one], the figure is 11.6 nM; as for `COc1ccc([C@H]2C[C@@H]2COc2cc(NCc3ccc(C)c(C)n3)c(=O)n(C)n2)nc1` [Example 69, 4-(((5,6-dimethylpyridin-2-yl)methyl)amino)-6-(((1S,2S)-2-(5-methoxy-pyridin-2-yl)cyclopropyl-)-methoxy)-2-methyl-pyridazin-3(2H)-one], 0.41 nM. Regarding `COc1ccc([C@H]2C[C@@H]2COc2cc(NCc3nc(C)ccc3F)c(=O)n(C)n2)nc1` [Example 70, 4-(((3-fluoro-6-methyl-pyridin-2-yl)methyl)-amino)-6-(((1S,2S)-2-(5-methoxypyridin-2-yl)-cyclopropyl)methoxy)-2-methylpyridazin-3(2H)one], the Ki was 55.1 nM. In the case of `COc1ccc([C@H]2C[C@@H]2COc2cc(NCc3nc(C)ccc3C)c(=O)n(C)n2)nc1` [Example 71, 4-(((3,6-dimethylpyridin-2-yl)methyl)amino)-6-(((1S,2S)-2-(5-methoxy-pyridin-2-yl)cyclopropyl-)-methoxy)-2-methylpyridazin-3(2H)one] it was 48.5 nM. As for `COc1ccc([C@H]2C[C@@H]2COc2cc(NCc3ccc(C)cn3)c(=O)n(C)n2)nc1` [Example 72, 6-(((1S,2S)-2-(5-methoxy-pyridin-2-yl)cyclopropyl-)-methoxy)-2-methyl-4-(((5-methylpyridin-2-yl)-methyl)amino)pyridazin-3(2H)-one], the figure is 0.019 nM. In the case of `COc1ccc([C@H]2C[C@@H]2COc2cc(NCc3ncccc3C)c(=O)n(C)n2)nc1` [Example 73, 6-(((1S,2S)-2-(5-methoxypyridin-2-yl)cyclopropyl)methoxy)-2-methyl-4-(((3-methyl-pyridin-2-yl)methyl)-amino)pyridazin-3(2H)one] it was 32.3 nM. With `COc1ccc([C@H]2C[C@@H]2COc2cc(NCc3ccc(F)c(C)n3)c(=O)n(C)n2)nc1` [Example 74, 4-(((5-fluoro-6-methyl-pyridin2yl)methyl)amino)-6-(((1S,2S)-2-(5-methoxy-pyridin-2-yl)cyclopropyl-)-methoxy)-2-methyl-pyridazin-3(2H)-one], the Ki amounted to 5.3 nM. In the case of `COc1ccc([C@H]2C[C@@H]2COc2cc(NCc3ccc(Cl)c(C)n3)c(=O)n(C)n2)nc1` [Example 75, 4-(((5-chloro-6-methyl-pyridin-2-yl)methyl)-amino)-6-(((1S,2S)-2-(5-methoxypyridin-2-yl)cyclopropyl)methoxy)2-methylpyridazin-3(2H)one] it was 1.3 nM. As for `COc1ccc([C@H]2C[C@@H]2COc2cc(NCc3ccc(C)nn3)c(=O)n(C)n2)nc1` [Example 76, 6-(((1S,2S)-2-(5-methoxy-pyridin-2-yl)cyclopropyl-)-methoxy)-2-methyl-4-(((6-methylpyridazin-3-yl)methyl)amino)pyridazin-3(2H)-one], the inhibitory constant (Ki) was found to be 0.039 nM. As for `COc1ccc(Cn2cc(CNc3cc(OC[C@H]4C[C@@H]4c4ccc(OC)cn4)nn(C)c3=O)c(C)n2)cc1` [Example 77, 4-((1-(4-methoxybenzyl)-3-methyl-1H-pyrazol-4-yl)methylamino)-6-(((1S,2S)-2-(5-methoxy-pyridin-2-yl)cyclopropyl)-methoxy)-2-methyl-pyridazin-3(2H)-one], the figure is 5.7 nM.

By Ki is commonly meant a dissociation constant, usually derived from enzyme kinetics or from competition with a known ligand.
